Assays:
Assay in all cases: relative viability (nuclei count vs DMSO), 5 days (fraction); higher = more cells survive
Erlotinib + Lapatinib = compound: C#Cc1cccc(Nc2ncnc3cc(OCCOC)c(OCCOC)cc23)c1 [Erlotinib] + CS(=O)(=O)CCNCc1ccc(-c2ccc3ncnc(Nc4ccc(OCc5cccc(F)c5)c(Cl)c4)c3c2)o1 [Lapatinib] (partner 2 µM)
How it was run: (§1)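 One day after seeding in 1536-well plates, lung cancer cell lines were dosed by pin tool. Dosing was either single-drug or a fixed anchor-drug dose plus five library-drug doses (not always all listed) in √10 steps. After 5 days, nuclei were stained in one fix-and-stain step and counted on 4× images, and relative viability is the nuclei count of treated wells over that of vehicle wells, given as the median of duplicate plates.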

AT9283 + Trametinib = compound: O=C(Nc1c[nH]nc1-c1nc2ccc(CN3CCOCC3)cc2[nH]1)NC1CC1 [AT9283] + CC(=O)Nc1cccc(-n2c(=O)n(C3CC3)c(=O)c3c(Nc4ccc(I)cc4F)n(C)c(=O)c(C)c32)c1 [Trametinib] (partner 0.02 µM)
How it was run: as §1

AT9283 + Foretinib = compound: O=C(Nc1c[nH]nc1-c1nc2ccc(CN3CCOCC3)cc2[nH]1)NC1CC1 [AT9283] + COc1cc2c(Oc3ccc(NC(=O)C4(C(=O)Nc5ccc(F)cc5)CC4)cc3F)ccnc2cc1OCCCN1CCOCC1 [Foretinib] (partner 0.25 µM)
How it was run: as §1

AT9283 + Tozasertib = compound: O=C(Nc1c[nH]nc1-c1nc2ccc(CN3CCOCC3)cc2[nH]1)NC1CC1 [AT9283] + Cc1cc(Nc2cc(N3CCN(C)CC3)nc(Sc3ccc(NC(=O)C4CC4)cc3)n2)n[nH]1 [Tozasertib] (partner 0.1 µM)
How it was run: as §1

AT9283 + Pemetrexed = compound: O=C(Nc1c[nH]nc1-c1nc2ccc(CN3CCOCC3)cc2[nH]1)NC1CC1 [AT9283] + Nc1nc2[nH]cc(CCc3ccc(C(=O)N[C@@H](CCC(=O)O)C(=O)O)cc3)c2c(=O)[nH]1 [Pemetrexed] (partner 0.2 µM)
How it was run: as §1

Cell Line | relative viability (Erlotinib + Lapatinib; first compound 0.02 µM) | relative viability (Erlotinib + Lapatinib; first compound 0.2 µM) | relative viability (Erlotinib + Lapatinib; first compound 0.6325 µM) | relative viability (Erlotinib + Lapatinib; first compound 2 µM) | relative viability (AT9283 + Trametinib; first compound 0.003 µM) | relative viability (AT9283 + Trametinib; first compound 0.03 µM) | relative viability (AT9283 + Trametinib; first compound 0.09487 µM) | relative viability (AT9283 + Trametinib; first compound 0.3 µM) | relative viability (AT9283 + Foretinib; first compound 0.003 µM) | relative viability (AT9283 + Foretinib; first compound 0.03 µM) | relative viability (AT9283 + Foretinib; first compound 0.09487 µM) | relative viability (AT9283 + Foretinib; first compound 0.3 µM) | relative viability (AT9283 + Tozasertib; first compound 0.003 µM) | relative viability (AT9283 + Tozasertib; first compound 0.03 µM) | relative viability (AT9283 + Tozasertib; first compound 0.09487 µM) | relative viability (AT9283 + Tozasertib; first compound 0.3 µM) | relative viability (AT9283 + Pemetrexed; first compound 0.003 µM) | relative viability (AT9283 + Pemetrexed; first compound 0.03 µM) | relative viability (AT9283 + Pemetrexed; first compound 0.09487 µM) | relative viability (AT9283 + Pemetrexed; first compound 0.3 µM)
HCC-78 | 0.737 | 0.742 | 0.696 | 0.701 | 0.794 | 0.745 | 0.353 | 0.222 | 0.5 | 0.485 | 0.331 | 0.305 | 0.501 | 0.354 | 0.267 | 0.291 | 0.905 | 0.896 | 0.924 | 0.919
HCC-366 | 1.08 | 1 | 1.33 | 1.09 | 0.349 | 0.256 | 0.173 | 0.0874 | 0.962 | 0.881 | 0.0841 | 0.0697 | 0.127 | 0.438 | 0.0615 | 0.0586 | 0.169 | 0.2 | 0.101 | 0.067
HCC-827 | 0.239 | 0.163 | 0.201 | 0.171 | 0.492 | 0.437 | 0.257 | 0.204 | 1.05 | 0.745 | 0.331 | 0.244 | 0.409 | 0.374 | 0.337 | 0.257 | 0.281 | 0.247 | 0.236 | 0.207
HOP-62 | 1.08 | 1.09 | 0.94 | 1.04 | 0.384 | 0.431 | 0.194 | 0.188 | 1.12 | 0.667 | 0.324 | 0.321 | 0.34 | 0.263 | 0.213 | 0.265 | 0.439 | 0.192 | 0.144 | 0.153
IA-LM | 1.14 | 0.712 | 1.43 | 0.73 |  |  |  |  | 1.21 | 0.391 | 0.105 | 0.0774 |  |  |  |  |  |  |  | 
LC-2-ad | 1.03 | 0.896 | 1.05 | 0.861 | 0.872 | 0.707 | 0.5 | 0.236 | 0.881 | 0.71 | 0.336 | 0.225 | 0.422 | 0.285 | 0.321 | 0.25 | 0.258 | 0.253 | 0.219 | 0.164
LCLC-97TM1 | 1.36 |  | 0.929 | 0.846 | 0.203 | 0.159 | 0.119 | 0.123 | 0.938 | 0.49 | 0.163 | 0.176 | 0.199 | 0.123 | 0.18 | 0.181 | 0.19 | 0.134 | 0.0995 | 0.0907
LCLC-103H |  |  |  |  | 0.661 | 0.716 | 0.441 | 0.4 | 0.737 | 0.732 | 0.258 | 0.219 | 0.45 | 0.347 | 0.187 | 0.259 | 0.447 | 0.411 | 0.343 | 0.324
LK-2 | 0.971 | 0.875 | 1.17 | 0.844 | 0.746 | 0.759 | 0.195 | 0.194 | 0.965 | 0.31 | 0.159 | 0.129 | 0.174 | 0.225 | 0.172 | 0.209 | 0.196 | 0.135 | 0.136 | 0.105
LOU-NH91 | 0.735 | 0.723 | 0.786 | 0.734 | 0.801 | 0.788 | 0.536 | 0.493 | 0.913 | 0.887 | 0.548 | 0.375 | 0.61 | 0.391 | 0.373 | 0.388 | 0.406 | 0.385 | 0.331 | 0.351
NCI-H522 |  |  |  |  | 0.736 | 0.811 | 0.599 | 0.415 |  |  |  |  | 0.545 | 0.576 | 0.56 | 0.557 | 0.949 | 0.78 | 0.746 | 0.499
NCI-H727 | 0.821 | 0.873 | 0.929 | 0.766 | 0.378 | 0.418 | 0.359 | 0.347 | 0.689 | 0.649 | 0.437 | 0.331 | 0.589 | 0.567 | 0.457 | 0.444 |  |  |  | 
NCI-H1299 | 0.994 | 0.995 | 0.904 |  |  |  |  |  | 1.13 | 0.541 | 0.415 | 0.373 |  |  |  |  |  |  |  | 
NCI-H1563 | 0.877 | 0.851 | 0.843 | 0.879 |  |  |  |  | 0.906 | 0.765 | 0.708 | 0.633 |  |  |  |  | 0.751 | 0.66 | 0.559 | 0.513
NCI-H1623 |  |  |  |  |  |  |  |  | 0.91 | 0.837 | 0.612 | 0.487 | 0.411 | 0.408 | 0.357 | 0.389 |  |  |  | 
NCI-H1648 |  |  |  |  | 0.404 | 0.563 | 0.333 | 0.336 |  |  |  |  | 0.456 | 0.343 | 0.329 | 0.258 | 0.579 | 0.553 | 0.493 | 0.386
NCI-H1703 | 1.42 |  | 1.21 | 0.992 |  |  |  |  | 0.335 | 0.254 | 0.273 | 0.228 |  |  |  |  |  |  |  | 
NCI-H1792 |  | 0.877 | 1.18 | 0.842 | 0.315 | 0.376 | 0.509 | 0.258 |  |  |  |  |  |  |  |  | 0.783 | 0.945 | 0.805 | 0.167
NCI-H2342 |  |  |  |  | 0.841 | 0.808 | 0.707 | 0.442 | 1.2 | 1.01 | 0.547 | 0.367 | 0.555 | 0.453 | 0.403 | 0.344 | 0.793 | 0.619 | 0.603 | 0.387
SW 900 |  |  |  |  | 0.66 | 0.607 | 0.345 | 0.27 | 1.1 | 0.898 | 0.866 | 0.366 | 0.476 | 0.526 | 0.359 | 0.307 | 0.326 | 0.468 | 0.423 | 0.32

— the supplement of paper PMC10307832
